Measured values reported in paper PMC9030691, “Toxicokinetics of β-Amanitin in Mice and In Vitro Drug–Drug Interaction Potential” (Pharmaceutics, 2022).
Where two headings read alike, the source gives them in different places.

Columns and labels:
[1] = Toxicokinetics after oral administration in mice; format: in vivo; settings: male ICR mice; for bioavailability / Tmax / Cmax / half-life / AUC(0-inf) / AUC(0-t): mouse; for bioavailability / Tmax / Cmax / AUC(0-inf) / AUC(0-t): plasma; for bioavailability: (dose normalized AUCPO/dose normalized AUCIV) × 100, mean ± SD, read-out: F (oral bioavailability); for Tmax: median with range in parentheses; for Cmax: fasted; for Cmax / AUC(0-inf) / AUC(0-t): LC-HRMS; for Cmax / half-life / AUC(0-inf) / AUC(0-t): mean ± SD; for half-life: plasma elimination half-life; for AUC(0-inf) / AUC(0-t): non-compartmental
Experimental: The Institutional Animal Care and Use Committee of the Catholic University of Korea (approval number, CUK-IACUC-2021-004; approval date, 21 March 2021) approved the study protocol. Male ICR mice (8 weeks of age, 27.4 ± 2.3 g) were purchased from Orient Bio Inc. (Seongnam, Korea). Mice were kept in plastic cages with unlimited access to a standard mouse diet (Orient Bio) and water before the experiments. For oral administration, mice were fasted for at least 12 h but allowed free access to water.
β-amanitin was dissolved in water and administered to mice by gavage at doses of 2 (n = 7), 5 (n = 9), and 10 (n = 7) mg/kg. Blood samples (approximately 15 μL) were collected from the retro-orbital plexus under light anesthesia with isoflurane at 0.033, 0.083, 0.166, 0.25, 0.5, 0.75, 1, 1.5, 2, 4, 6, and 8 h after drug administration. Plasma samples (5 μL each) were harvested by centrifugation at 13,000× g for 3 min at 4 °C and stored at −80 °C until analysis.
Concentrations of β-amanitin in biological samples were evaluated following our previous methodology. The standard calibration curves for β-amanitin in mouse plasma ranged from 0.5 to 500 ng/mL and were linear, with a correlation coefficient of 0.9952. The inter- and intra-day accuracy and precision fell within the acceptance criteria (3.1–14.6% of coefficients of variation (CVs) and 92.5–115.0% of accuracy). The extraction recovery and matrix effect of this analytical method were 82.8–88.9% and 93.0–98.6%.
An aliquot (5 μL) of plasma sample was mixed with 15 μL of 4′-hydroxydiclofenac (internal standard (IS), 5 ng/mL) in methanol and vortexed for 2 min. The mixture was centrifuged at 13,000× g at 4 °C for 5 min, and the supernatant was then transferred to an autosampler vial. An aliquot (5 μL) was injected into the LC-HRMS system for analysis.
The toxicokinetic parameters of β-amanitin were analyzed by non-compartmental analyses (WinNonlin, Pharsight; Mountain View, CA, USA) (Table 1). Data were expressed as mean ± standard deviations (SD). Comparisons of data between groups were performed using one-way ANOVA or Student t-test. Values of p < 0.05 were considered statistically significant.

CYP2C9 = biological target: T1, CYP2C9 (Homo sapiens, UniProt P11712); assay: CYP2C9 inhibition in human liver microsomes; format: in vitro ADME; settings: ultrapooled human liver microsomes 0.2 mg/mL, 10 μM diclofenac, β-amanitin 0.1–100 μM, pH 7.4, 37 °C, 15 min, LC-MS/MS, n = 3, read-out: IC50, CYP2C9 diclofenac 4′-hydroxylase
T1 construct: from tissue; host or cells: ultrapooled human liver microsomes
T1 sequence (P11712 whole entry): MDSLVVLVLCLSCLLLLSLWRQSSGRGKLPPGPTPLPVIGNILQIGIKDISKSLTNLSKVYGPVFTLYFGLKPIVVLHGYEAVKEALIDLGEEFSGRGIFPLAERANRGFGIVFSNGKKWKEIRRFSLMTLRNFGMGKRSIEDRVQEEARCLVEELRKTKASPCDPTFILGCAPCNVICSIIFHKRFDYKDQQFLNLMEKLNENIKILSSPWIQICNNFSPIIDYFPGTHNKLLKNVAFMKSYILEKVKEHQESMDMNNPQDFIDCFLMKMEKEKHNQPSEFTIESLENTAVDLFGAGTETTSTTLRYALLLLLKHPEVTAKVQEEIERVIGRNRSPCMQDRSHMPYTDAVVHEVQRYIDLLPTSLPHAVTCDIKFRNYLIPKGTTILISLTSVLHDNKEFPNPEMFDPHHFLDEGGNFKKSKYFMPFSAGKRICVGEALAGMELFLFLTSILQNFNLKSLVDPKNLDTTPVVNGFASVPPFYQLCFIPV
Experimental: (§1) β-amanitin inhibition (IC50 values) of CYP1A2, CYP2A6, CYP2B6, CYP2C8, CYP2C9, CYP2C19, CYP2D6, and CYP3A4 enzyme activities in HLMs were evaluated using LC-MS/MS and CYP substrates as previously described. Each incubation mixture was made up to a volume of 100 μL including HLMs (0.2 mg/mL), 50 mM potassium phosphate buffer (pH 7.4), 1.0 mM NADPH, 10 mM magnesium chloride, various concentrations of β-amanitin (0.1–100 μM), a cocktail of seven CYP probe substrates (50 μM phenacetin for CYP1A2, 2.5 μM coumarin for CYP2A6, 2 μM amodiaquine for CYP2C8, 10 μM diclofenac for CYP2C9, 100 μM [S]-mephenytoin for CYP2C19, 5 μM bufuralol for CYP2D6, and 2.5 μM midazolam for CYP3A4 in acetonitrile), or 50 μM bupropion for CYP2B6. The reactions were initiated with NADPH followed by incubation in a shaking water bath at 37 °C for 15 min with or without 30 min preincubation with NADPH. Reactions were stopped with 50 μL of ice-cold methanol containing ^13C2, ^15N-acetaminophen and d9-1′-hydroxybufuralol (ISs). Incubation mixtures were centrifuged at 13,000× g for 8 min at 4 °C. An aliquot (5 μL) of the supernatant from the reaction mixture was analyzed by the previous LC-MS/MS method.

CYP3A4 = biological target: T2, CYP3A4 (Homo sapiens, UniProt P08684); assay: CYP3A4 inhibition in human liver microsomes; format: in vitro ADME; settings: ultrapooled human liver microsomes 0.2 mg/mL, 2.5 μM midazolam, β-amanitin 0.1–100 μM, pH 7.4, 37 °C, 15 min, LC-MS/MS, n = 3, read-out: IC50, CYP3A4 midazolam 1′-hydroxylase
T2 construct: from tissue; host or cells: ultrapooled human liver microsomes
T2 sequence (P08684 whole entry): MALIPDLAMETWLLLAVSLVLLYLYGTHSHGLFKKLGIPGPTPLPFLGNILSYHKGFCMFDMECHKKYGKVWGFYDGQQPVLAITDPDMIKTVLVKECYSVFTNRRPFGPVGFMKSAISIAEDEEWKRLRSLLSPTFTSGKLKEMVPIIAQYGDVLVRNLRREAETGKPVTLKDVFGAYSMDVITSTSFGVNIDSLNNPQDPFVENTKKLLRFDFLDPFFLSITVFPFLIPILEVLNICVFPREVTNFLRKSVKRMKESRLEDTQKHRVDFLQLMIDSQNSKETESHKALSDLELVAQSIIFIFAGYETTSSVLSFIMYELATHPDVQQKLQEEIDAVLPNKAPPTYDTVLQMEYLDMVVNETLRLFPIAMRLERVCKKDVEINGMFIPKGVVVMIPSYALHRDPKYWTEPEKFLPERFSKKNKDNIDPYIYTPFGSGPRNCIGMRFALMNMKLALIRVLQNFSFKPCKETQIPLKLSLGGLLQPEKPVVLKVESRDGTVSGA
Experimental: as §1

MATE2-K = MATE2-K (Homo sapiens, UniProt Q86VL8); assay: MATE2-K transport inhibition in HEK293-MATE2-K cells; format: in vitro ADME; design: host or cells: HEK293 (TransportoCells); settings: 0.1 μM probe substrate, HBSS pH 7.4, β-amanitin 0.01–250 μM (methods), n = 3, read-out: IC50, MATE2-K-mediated [14C]metformin uptake
MATE2-K, sequence (Q86VL8 1-566 isoform Q86VL8-3): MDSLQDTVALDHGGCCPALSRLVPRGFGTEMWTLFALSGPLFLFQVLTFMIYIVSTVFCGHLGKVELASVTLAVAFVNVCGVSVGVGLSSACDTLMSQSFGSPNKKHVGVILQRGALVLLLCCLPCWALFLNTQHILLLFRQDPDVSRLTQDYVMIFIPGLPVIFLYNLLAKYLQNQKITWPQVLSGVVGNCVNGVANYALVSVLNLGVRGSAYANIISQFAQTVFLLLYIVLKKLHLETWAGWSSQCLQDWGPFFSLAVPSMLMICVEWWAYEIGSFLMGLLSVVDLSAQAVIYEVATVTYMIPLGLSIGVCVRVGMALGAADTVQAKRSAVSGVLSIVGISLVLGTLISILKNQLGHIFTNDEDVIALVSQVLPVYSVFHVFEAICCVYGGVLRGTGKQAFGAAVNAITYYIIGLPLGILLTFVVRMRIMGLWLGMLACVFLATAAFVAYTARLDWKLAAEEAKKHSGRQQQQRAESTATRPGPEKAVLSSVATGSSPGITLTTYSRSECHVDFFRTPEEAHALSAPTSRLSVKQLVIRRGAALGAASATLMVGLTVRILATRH
Experimental: β-amanitin inhibition (IC50 values) of OCT1, OCT2, MATE2-K, OAT1, OAT3, Na^+/taurocholate co-transporting polypeptide (NTCP), OATP1B1, OATP1B3, P-glycoprotein (P-gp), and breast-cancer-resistant protein (BCRP) transport activities were assessed in HEK293 cells overexpressing individual transporters (TransportoCells™, Corning), LLC-PK1-P-gp (Corning), or LLC-PK1-BCRP (obtained from Dr. A.H. Schinkel, Netherlands Cancer Institute; Amsterdam, The Netherlands), as previously reported. Each incubation mixture was prepared to a final volume of 100 μL HBSS (pH 7.4) containing 0.1 μM probe substrates ([^3H]methyl-4-phenylpyridinium for OCT1 and OCT2, [^14C]metformin for MATE2-K, [^3H]p-aminohippuric acid for OAT1, [^3H]estrone-3-sulfate for OAT3, OATP1B1 and BCRP, [^3H]taurocholate for NTCP, [^3H]17-β-D-estradiol-glucuronide for OATP1B3, [^3H]digoxin for P-gp) and various concentrations of β-amanitin (0.01–250 μM), as previously described.

[2] = oral 2, 5 and 10 mg/kg, range of the dose-group means
[3] = with 30 min NADPH preincubation

Question: Which “Tmax, range over the oral doses” value ([1]; oral 2, 5 and 10 mg/kg, range of individual values) does the source give for `CC[C@H](C)[C@@H]1NC(=O)CNC(=O)[C@@H]2Cc3c([nH]c4cc(O)ccc34)[S@+]([O-])C[C@H](NC(=O)CNC1=O)C(=O)N[C@@H](CC(=O)O)C(=O)N1C[C@H](O)C[C@H]1C(=O)N[C@@H]([C@@H](C)[C@@H](O)CO)C(=O)N2` [β-amanitin] here?
Answer: Its value is 10~120 min.

Question: And the “Absolute (oral) bioavailability, range over the oral doses” value [1, 2]?
Answer: The value was 7.3–9.4%.

Question: What about the “t1/2, range over the oral doses” value [1, 2] of the same molecule?
Answer: The value was 105.0~132.0 min.

Question: What about the bioavailability ([1]; oral gavage 2 mg/kg, n = 7) of the same molecule?
Answer: Its bioavailability is 9.4 ± 4.9%.

Question: What about the Tmax ([1]; oral gavage 2 mg/kg, n = 7) of the same molecule?
Answer: The Tmax was 1 h.

Question: And the bioavailability ([1]; oral gavage 5 mg/kg, n = 9)?
Answer: The bioavailability was 8.1 ± 4.3%.

Question: And the Tmax ([1]; oral gavage 5 mg/kg, n = 9)?
Answer: Its Tmax is 1.5 h.

Question: And the bioavailability ([1]; oral gavage 10 mg/kg, n = 7)?
Answer: Its bioavailability is 7.3 ± 3.1%.

Question: And the Tmax ([1]; oral gavage 10 mg/kg, n = 7)?
Answer: The Tmax was 1 h.

Question: What about the Cmax ([1]; oral gavage 2 mg/kg in water, n = 7) of the same molecule?
Answer: The Cmax was 0.0671 ± 0.0186 µg/mL.

Question: And the Cmax ([1]; oral gavage 5 mg/kg in water, n = 9)?
Answer: The Cmax was 0.14 ± 0.116 µg/mL.

Question: What about the Cmax ([1]; oral gavage 10 mg/kg in water, n = 7) of the same molecule?
Answer: The Cmax was 0.36 ± 0.385 µg/mL.

Question: What about the half-life ([1]; oral gavage 2 mg/kg, n = 7) of the same molecule?
Answer: Its half-life is 1.75 ± 1.57 h.

Question: What about the AUC(0-inf) ([1]; oral gavage 2 mg/kg, n = 7) of the same molecule?
Answer: Its AUC(0-inf) is 0.191 µg·h/mL.

Question: And the AUC(0-t) ([1]; oral gavage 2 mg/kg, n = 7)?
Answer: The AUC(0-t) was 0.181 µg·h/mL.

Question: And the half-life ([1]; oral gavage 5 mg/kg, n = 9)?
Answer: The half-life was 2.2 ± 0.838 h.

Question: And the AUC(0-inf) ([1]; oral gavage 5 mg/kg, n = 9)?
Answer: The AUC(0-inf) was 0.438 µg·h/mL.

Question: What about the AUC(0-t) ([1]; oral gavage 5 mg/kg, n = 9) of the same molecule?
Answer: The AUC(0-t) was 0.391 µg·h/mL.

Question: And the half-life ([1]; oral gavage 10 mg/kg, n = 7)?
Answer: The half-life was 2.17 ± 1.31 h.

Question: What about the AUC(0-inf) ([1]; oral gavage 10 mg/kg, n = 7) of the same molecule?
Answer: The AUC(0-inf) was 0.81 µg·h/mL.

Question: And the AUC(0-t) ([1]; oral gavage 10 mg/kg, n = 7)?
Answer: Its AUC(0-t) is 0.698 µg·h/mL.

Question: And the IC50 (CYP2C9; [3])?
Answer: The IC50 was over 100 µM.

Question: What about the IC50 (CYP2C9; without NADPH preincubation) of the same molecule?
Answer: The IC50 was over 100 µM.

Question: What about the IC50 (CYP3A4; [3]) of the same molecule?
Answer: Its IC50 is over 100 µM.

Question: What about the IC50 (CYP3A4; without NADPH preincubation) of the same molecule?
Answer: The IC50 was over 100 µM.

Question: And the IC50 (MATE2-K)?
Answer: Its IC50 is 2.1 µM.
